From patent US12472166B2, “Inhibition of mycobacterial type VII secretion” (priority 2019, dated 2025)
Entries after “also recorded” stand apart in the source; their conditions may differ.

Experiments:
Type in all cases: cell-based
[1] = system: ESX-5 dependent secretion
[2] = system: Apa (SEC dependent secretion)
[3] = system: PE_PGRS and EsxN (ESX-5 dependent secretion)

Row | Compound | effect on ESX-5 secretion activity (lipase DGGR vs viability REMA) [1] | further results
1 | O=C(CSc1nc(-c2ccccc2)ns1)NC1CCCC1 [Compound I-5] | significant reduction in lipase activity (substrate DGGR) before the bacterial viability (REMA) is affected | –
2 | COc1ccc(-c2nsc(SCC(=O)NC3CCCC3)n2)cc1 [Compound I-12] | – | secretion of Apa [2]: did not affect secretion; secreted PE_PGRS proteins compared to DMSO control [3]: most drastic decrease; also recorded: secretion inhibition similar to the non-functional ESX-5 mutant; effect on secretion of the reporter lipase LipY when mspA was over-produced [1]: showed no changes; lipase secretion compared to DMSO treated control [1]: significant reduction of lipase secretion
3 | COc1ccc(-c2nsc(SCC(=O)NCC3CCCC3)n2)cc1 [Compound I-38, reference compound] | do not affect the activity of ESX-5 | –
4 | Cc1cccc(-c2nsc(SCC(=O)NCC3CCCO3)n2)c1 (stereo not shown) [Compound I-39, reference compound] | do not affect the activity of ESX-5 | –
5 | CCOC(=O)CNC(=O)CSc1nc(-c2cccc(C)c2)ns1 [Compound I-40, reference compound] | affect ESX-5 secretion activity | –
6 | CCOC(=O)CNC(=O)CSc1nc(-c2ccccc2)ns1 [Compound I-41, reference compound] | affect ESX-5 secretion activity | –
7 | CO[C@H]1/C=C/O[C@@]2(C)Oc3c(C)c(O)c4c(O)c(c(/C=N/N5CCN(C)CC5)c(O)c4c3C2=O)NC(=O)/C(C)=C\C=C\[C@H](C)[C@H](O)[C@@H](C)[C@@H](O)[C@@H](C)[C@H](OC(C)=O)[C@@H]1C [Rifampin, reference compound] | – | lipase activity (DGGR) readout, control condition [1]: negative
